Measured values as given in the NIST ThermoML archive (doi:10.1016/j.jct.2017.01.016).
± gives the expanded uncertainty stated by the source.

Experiment: xn = mol fraction of the nth substance listed
Details: 101 kPa, Liquid; for viscosity: Capillary tube (Ostwald / Ubbelohde) method; for speed of sound: Frequency=3 MHz, Linear variable-path acoustic interferometer

Cc1cc(C)cc(C)c1 [1,3,5-trimethylbenzene] + C1COCCO1
Details | speed of sound [m/s] | viscosity [mPa·s]
293.15 K, x2 = 0 | 1360.4 ± 1.7 | 0.7056 ± 0.015
293.15 K, x2 = 0.0696 | 1354.2 ± 1.7 | 0.7332 ± 0.015
293.15 K, x2 = 0.1408 | 1348.2 ± 1.7 | 0.7648 ± 0.016
293.15 K, x2 = 0.2098 | 1342.8 ± 1.7 | 0.7974 ± 0.017
293.15 K, x2 = 0.28 | 1337.8 ± 1.7 | 0.8326 ± 0.017
293.15 K, x2 = 0.3558 | 1333.1 ± 1.7 | 0.8728 ± 0.018
293.15 K, x2 = 0.4276 | 1329.3 ± 1.7 | 0.9131 ± 0.019
293.15 K, x2 = 0.5066 | 1326.5 ± 1.7 | 0.9597 ± 0.02
293.15 K, x2 = 0.5801 | 1325 ± 1.7 | 1.005 ± 0.021
293.15 K, x2 = 0.6548 | 1325.4 ± 1.7 | 1.054 ± 0.022
293.15 K, x2 = 0.7227 | 1327.5 ± 1.7 | 1.099 ± 0.023
293.15 K, x2 = 0.7936 | 1332 ± 1.7 | 1.149 ± 0.024
293.15 K, x2 = 0.8663 | 1340 ± 1.7 | 1.202 ± 0.025
293.15 K, x2 = 0.9319 | 1351 ± 1.7 | 1.252 ± 0.026
298.15 K, x2 = 0 | 1339.8 ± 1.7 | 0.6592 ± 0.014
298.15 K, x2 = 0.0696 | 1333.4 ± 1.7 | 0.6835 ± 0.014
298.15 K, x2 = 0.1408 | 1327.5 ± 1.7 | 0.7112 ± 0.015
298.15 K, x2 = 0.2098 | 1322.1 ± 1.7 | 0.7398 ± 0.015
298.15 K, x2 = 0.28 | 1317.1 ± 1.7 | 0.7712 ± 0.016
298.15 K, x2 = 0.3558 | 1312.5 ± 1.7 | 0.8066 ± 0.017
298.15 K, x2 = 0.4276 | 1308.9 ± 1.7 | 0.8422 ± 0.018
298.15 K, x2 = 0.5066 | 1306 ± 1.7 | 0.8838 ± 0.018
298.15 K, x2 = 0.5801 | 1304.5 ± 1.7 | 0.9244 ± 0.019
298.15 K, x2 = 0.6548 | 1304.7 ± 1.7 | 0.9678 ± 0.02
298.15 K, x2 = 0.7227 | 1306.5 ± 1.7 | 1.009 ± 0.021
298.15 K, x2 = 0.7936 | 1310.8 ± 1.7 | 1.053 ± 0.022
298.15 K, x2 = 0.8663 | 1318.5 ± 1.7 | 1.101 ± 0.023
298.15 K, x2 = 0.9319 | 1329 ± 1.7 | 1.146 ± 0.024
303.15 K, x2 = 0 | 1319.6 ± 1.7 | 0.6188 ± 0.013
303.15 K, x2 = 0.0696 | 1313.2 ± 1.7 | 0.6405 ± 0.013
303.15 K, x2 = 0.1408 | 1307.3 ± 1.7 | 0.6646 ± 0.014
303.15 K, x2 = 0.2098 | 1301.9 ± 1.7 | 0.6896 ± 0.015
303.15 K, x2 = 0.28 | 1297.1 ± 1.7 | 0.7168 ± 0.015
303.15 K, x2 = 0.3558 | 1292.5 ± 1.7 | 0.7483 ± 0.016
303.15 K, x2 = 0.4276 | 1288.9 ± 1.7 | 0.78 ± 0.016
303.15 K, x2 = 0.5066 | 1286 ± 1.7 | 0.8167 ± 0.017
303.15 K, x2 = 0.5801 | 1284.5 ± 1.7 | 0.8532 ± 0.018
303.15 K, x2 = 0.6548 | 1284.6 ± 1.7 | 0.8918 ± 0.019
303.15 K, x2 = 0.7227 | 1286.4 ± 1.7 | 0.9287 ± 0.019
303.15 K, x2 = 0.7936 | 1290.3 ± 1.7 | 0.9688 ± 0.02
303.15 K, x2 = 0.8663 | 1297.6 ± 1.7 | 1.012 ± 0.021
303.15 K, x2 = 0.9319 | 1307.8 ± 1.7 | 1.052 ± 0.022
308.15 K, x2 = 0 | 1300.2 ± 1.7 | 0.5792 ± 0.012
308.15 K, x2 = 0.0696 | 1294 ± 1.7 | 0.5994 ± 0.013
308.15 K, x2 = 0.1408 | 1287.9 ± 1.7 | 0.6212 ± 0.013
308.15 K, x2 = 0.2098 | 1282.6 ± 1.7 | 0.6438 ± 0.013
308.15 K, x2 = 0.28 | 1277.6 ± 1.7 | 0.6685 ± 0.014
308.15 K, x2 = 0.3558 | 1273 ± 1.7 | 0.6966 ± 0.015
308.15 K, x2 = 0.4276 | 1269.2 ± 1.7 | 0.7253 ± 0.015
308.15 K, x2 = 0.5066 | 1266.3 ± 1.7 | 0.7589 ± 0.016
308.15 K, x2 = 0.5801 | 1264.6 ± 1.6 | 0.7918 ± 0.017
308.15 K, x2 = 0.6548 | 1264.7 ± 1.6 | 0.8274 ± 0.017
308.15 K, x2 = 0.7227 | 1266.2 ± 1.6 | 0.8612 ± 0.018
308.15 K, x2 = 0.7936 | 1270 ± 1.6 | 0.8982 ± 0.019
308.15 K, x2 = 0.8663 | 1277 ± 1.6 | 0.9376 ± 0.02
308.15 K, x2 = 0.9319 | 1286.7 ± 1.6 | 0.9752 ± 0.02
313.15 K, x2 = 0 | 1280.4 ± 1.7 | 0.5422 ± 0.011
313.15 K, x2 = 0.0696 | 1274.3 ± 1.7 | 0.5609 ± 0.012
313.15 K, x2 = 0.1408 | 1268.3 ± 1.7 | 0.5813 ± 0.012
313.15 K, x2 = 0.2098 | 1262.9 ± 1.7 | 0.6022 ± 0.013
313.15 K, x2 = 0.28 | 1258 ± 1.7 | 0.6248 ± 0.013
313.15 K, x2 = 0.3558 | 1253.3 ± 1.7 | 0.651 ± 0.014
313.15 K, x2 = 0.4276 | 1249.6 ± 1.6 | 0.6774 ± 0.014
313.15 K, x2 = 0.5066 | 1246.4 ± 1.6 | 0.7084 ± 0.015
313.15 K, x2 = 0.5801 | 1244.7 ± 1.6 | 0.7391 ± 0.015
313.15 K, x2 = 0.6548 | 1244.6 ± 1.6 | 0.7717 ± 0.016
313.15 K, x2 = 0.7227 | 1246.1 ± 1.6 | 0.8032 ± 0.017
313.15 K, x2 = 0.7936 | 1249.9 ± 1.6 | 0.8372 ± 0.017
313.15 K, x2 = 0.8663 | 1256.5 ± 1.6 | 0.874 ± 0.018
313.15 K, x2 = 0.9319 | 1265.7 ± 1.6 | 0.9088 ± 0.019
318.15 K, x2 = 0 | 1263 ± 1.7 | 0.5066 ± 0.011
318.15 K, x2 = 0.0696 | 1256.9 ± 1.7 | 0.5246 ± 0.011
318.15 K, x2 = 0.1408 | 1250.8 ± 1.7 | 0.5436 ± 0.011
318.15 K, x2 = 0.2098 | 1245.3 ± 1.7 | 0.5634 ± 0.012
318.15 K, x2 = 0.28 | 1240.3 ± 1.6 | 0.5846 ± 0.012
318.15 K, x2 = 0.3558 | 1235.4 ± 1.6 | 0.6092 ± 0.013
318.15 K, x2 = 0.4276 | 1231.5 ± 1.6 | 0.6342 ± 0.013
318.15 K, x2 = 0.5066 | 1228.3 ± 1.6 | 0.6632 ± 0.014
318.15 K, x2 = 0.5801 | 1226.4 ± 1.6 | 0.692 ± 0.015
318.15 K, x2 = 0.6548 | 1226 ± 1.6 | 0.7224 ± 0.015
318.15 K, x2 = 0.7227 | 1227.1 ± 1.6 | 0.7515 ± 0.016
318.15 K, x2 = 0.7936 | 1230.5 ± 1.6 | 0.7836 ± 0.016
318.15 K, x2 = 0.8663 | 1236.7 ± 1.6 | 0.8178 ± 0.017
318.15 K, x2 = 0.9319 | 1245.3 ± 1.6 | 0.8501 ± 0.018
